Bridge positions count the residues as written; N and C are the ends. Peptide text beside a SMILES is read from it.

The test system of test [1] is C30 anti-STp monoclonal antibody. The note with it: read-out: IC50, inhibition of C30 mAb binding to ELISA coating (peptides from RP-HPLC peaks).
The target of test [2] is T84 cells (Homo sapiens, UniProt P25092). Put plainly: T84 cell assay (cGMP response). The format is cell-based. To be noted: read-out: EC50 in the T84 cell assay, pre-incubation 1 mM IBMX 10 min, sample 60 min at 37 °C, cGMP enzyme immunoassay, three independent experiments, four-parameter logistic regression, bottom set to zero, Figure 2C.
T84 cells, sequence (P25092 24-1073): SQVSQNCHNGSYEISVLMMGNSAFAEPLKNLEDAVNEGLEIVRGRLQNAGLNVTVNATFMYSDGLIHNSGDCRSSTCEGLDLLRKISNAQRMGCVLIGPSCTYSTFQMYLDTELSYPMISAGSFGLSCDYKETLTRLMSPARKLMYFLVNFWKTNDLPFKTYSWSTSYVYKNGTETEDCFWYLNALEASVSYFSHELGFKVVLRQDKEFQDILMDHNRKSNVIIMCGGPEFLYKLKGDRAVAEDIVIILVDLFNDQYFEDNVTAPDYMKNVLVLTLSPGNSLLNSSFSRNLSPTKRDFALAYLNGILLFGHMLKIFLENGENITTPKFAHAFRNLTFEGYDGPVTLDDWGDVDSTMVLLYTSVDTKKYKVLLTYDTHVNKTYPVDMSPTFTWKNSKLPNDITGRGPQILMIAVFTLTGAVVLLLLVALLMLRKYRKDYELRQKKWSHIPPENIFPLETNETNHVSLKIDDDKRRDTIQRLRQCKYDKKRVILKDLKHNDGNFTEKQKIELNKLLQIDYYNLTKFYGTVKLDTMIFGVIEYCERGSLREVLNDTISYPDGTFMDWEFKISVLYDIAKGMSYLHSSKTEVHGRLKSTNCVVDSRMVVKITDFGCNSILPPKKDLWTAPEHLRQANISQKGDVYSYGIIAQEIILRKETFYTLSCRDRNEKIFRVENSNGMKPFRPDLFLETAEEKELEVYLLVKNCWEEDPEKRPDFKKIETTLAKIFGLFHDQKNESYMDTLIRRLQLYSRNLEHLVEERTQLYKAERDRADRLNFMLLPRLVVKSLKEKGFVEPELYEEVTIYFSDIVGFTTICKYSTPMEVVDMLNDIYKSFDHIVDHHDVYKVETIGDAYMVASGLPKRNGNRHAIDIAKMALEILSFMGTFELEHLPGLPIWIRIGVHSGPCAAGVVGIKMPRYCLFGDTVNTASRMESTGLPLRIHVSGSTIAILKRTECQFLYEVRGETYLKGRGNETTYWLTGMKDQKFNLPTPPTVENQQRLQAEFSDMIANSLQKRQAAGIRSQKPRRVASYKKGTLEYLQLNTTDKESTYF

Take `CC(C)C[C@@H]1NC(=O)[C@H](CCC(=O)O)NC(=O)[C@@H]2CSSC[C@@H]3NC(=O)[C@H](C)NC(=O)[C@@H]4CCCN4C(=O)[C@H](CC(N)=O)NC(=O)[C@H](CSSC[C@H](NC(=O)[C@H](Cc4ccc(O)cc4)NC(=O)[C@H](CC(N)=O)NC(=O)[C@H](CO)NC(=O)[C@H](CO)NC(=O)[C@@H](N)CC(N)=O)C(=O)N2)NC(=O)[C@H](CSSC[C@@H](C(=O)N[C@@H](Cc2ccc(O)cc2)C(=O)O)NC(=O)CNC(=O)[C@H]([C@@H](C)O)NC3=O)NC1=O` [STh] (H-NSSNYCCELCCNPACTGCY-OH; disulfide 6-11, 7-15, 10-18): the IC50 in test [1] amounted to 4.2 ± 0.3 nM. Moreover, in test [2], the EC50 turned out to be 15.4 ± 3 nM. With `CC(C)C[C@@H]1NC(=O)[C@H](CCC(=O)O)NC(=O)[C@@H]2CSSC[C@@H]3NC(=O)[C@H](C)NC(=O)[C@@H]4CCCN4C(=O)[C@H](CC(N)=O)NC(=O)[C@H](CSSC[C@H](NC(=O)[C@H](Cc4ccc(O)cc4)NC(=O)[C@H](Cc4ccccc4)NC(=O)[C@@H](NC(=O)[C@@H](N)CC(N)=O)[C@@H](C)O)C(=O)N2)NC(=O)[C@H](CSSC[C@@H](C(=O)N[C@@H](Cc2ccc(O)cc2)C(=O)O)NC(=O)CNC(=O)[C@H](C)NC3=O)NC1=O` [STp], in test [2], the EC50 was determined as 15.4 ± 3.8 nM. `CC(C)C[C@@H]1NC(=O)[C@H](CCC(=O)O)NC(=O)[C@@H]2CSSC[C@@H]3NC(=O)[C@H](C)NC(=O)[C@@H]4CCCN4C(=O)[C@H](CC(N)=O)NC(=O)[C@H](CSSC[C@H](NC(=O)[C@H](Cc4ccc(O)cc4)NC(=O)[C@H](CC(N)=O)NC(=O)[C@H](CO)NC(=O)[C@H](CO)NC(=O)[C@@H](N)CC(N)=O)C(=O)N2)NC(=O)[C@H](CSSC[C@@H](C(=O)N[C@@H](Cc2ccc(O)cc2)C(=O)O)NC(=O)CNC(=O)[C@H]([C@@H](C)O)NC3=O)NC1=O` [synthetic STh] (H-NSSNYCCELCCNPACTGCY-OH; disulfide 6-11, 7-15, 10-18): in test [1], the IC50 turned out to be 2.3 ± 0.1 nM. Further, the EC50 in test [2] was 9.6 ± 1.8 nM. Turning to `CC(C)C[C@@H]1NC(=O)[C@H](CCC(=O)O)NC(=O)[C@@H]2CSSC[C@@H]3NC(=O)[C@H](C)NC(=O)[C@@H]4CCCN4C(=O)[C@H](CC(N)=O)NC(=O)[C@H](CSSC[C@H](NC(=O)[C@H](Cc4ccc(O)cc4)NC(=O)[C@H](CC(N)=O)NC(=O)[C@H](CO)NC(=O)[C@H](CO)NC(=O)[C@@H](N)CC(N)=O)C(=O)N2)NC(=O)[C@H](CSSC[C@@H](C(=O)N[C@@H](Cc2ccc(O)cc2)C(=O)O)NC(=O)CNC(=O)[C@H]([C@@H](C)O)NC3=O)NC1=O` [ETEC STh] (H-NSSNYCCELCCNPACTGCY-OH; disulfide 6-11, 7-15, 10-18; N-terminus and C-terminus assumed), in test [2], the EC50 was 22.9 ± 6.8 nM.

By IC50 is commonly meant the concentration that inhibits the measured activity by half. Usually EC50 stands for the concentration at which the effect is half-maximal.

The values above are taken from PMC6071264 (Toxins, 2018).
